The subject of the assay is postmenopausal women. Briefly: Clinical data, summary in words: BMD and bone turnover markers after alendronate followed by raloxifene. The class given is in vivo, human. As to conditions: alendronate for one year followed sequentially by raloxifene alone.

Results on one compound are retold here after patent US20030216358A1, “Method for enhancing bone mineral density gain” (priority 2003, published 2003).

Method: A phase 3, multicenter, double-blind, placebo-controlled, randomized clinical trial was conducted. Objectives of the trial included comparing the effects of 12 months treatment with raloxifene HCl (60 mg/day), alendronate (10 mg/day), or the combination of the two agents together versus placebo on BMD at the lumbar spine and at the hip and also metabolic markers of bone turnover. Additional objectives included comparing the effects of raloxifene 60 mg/day versus placebo during a second year of study on the offset of action of raloxifene or alendronate, as assessed by these same efficacy parameters.
Three hundred thirty-one (331) subjects were randomly assigned to one of four initial treatment groups: placebo, raloxifene 60 mg/day, alendronate 10 mg/day or raloxifene plus alendronate together. After one year of therapy all subjects were re-randomized to receive either placebo or raloxifene 60 mg/day for an additional year of study. All subjects received approximately 500 mg of elemental calcium plus 400-600 I.U. of vitamin D/day throughout the entire study. […] In addition subjects had BMD and biochemical markers of bone turnover (including serum osteocalcin) repeated at six monthly intervals.

Regarding `O=C(c1ccc(OCCN2CCCCC2)cc1)c1c(-c2ccc(O)cc2)sc2cc(O)ccc12` [raloxifene, 6-hydroxy-2-(4-hydroxyphenyl)-3-[4-(2-piperidinoethoxy)benzoyl]-benzo[b]thiophene], the bone turnover markers result was “either return towards normal or remain suppressed but do not further decrease”. For the same compound, under “compared to alendronate followed by placebo”, the BMD entry was “further increases of BMD”.
